The supplement of paper PMC8183993
Counter-ions that a name gives are not always drawn.

What was measured:
Details in all cases: 24 h
U2OS [1] = assay: nuclei count in HPG assay relative to DMSO (% of DMSO); higher = more viable cells
Method: (§1)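 Validation screen in U2OS cells: hits tested at 1, 3 and 10 uM for 24 h in duplicate plates. Translation was read by OPP incorporation (1 h pulse) and HPG incorporation (30 min in methionine-free medium), quantified by high-throughput microscopy alongside nuclei counts. All values are normalised to DMSO (= 100).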

U2OS [2] = assay: nuclei count in OPP assay relative to DMSO (% of DMSO); higher = more viable cells
Method: as §1

U2OS [3] = assay: mean HPG incorporation (global translation) relative to DMSO (% of DMSO); higher = more protein synthesis
Method: as §1

U2OS [4] = assay: mean OPP incorporation (global translation) relative to DMSO (% of DMSO); higher = more protein synthesis
Method: as §1

| Structure (SMILES) | nuclei count in HPG assay (U2OS [1]; 1 µM) | nuclei count in HPG assay (U2OS [1]; 3 µM) | nuclei count in HPG assay (U2OS [1]; 10 µM) | nuclei count in OPP assay (U2OS [2]; 1 µM) | nuclei count in OPP assay (U2OS [2]; 3 µM) | nuclei count in OPP assay (U2OS [2]; 10 µM) | mean HPG incorporation (U2OS [3]; 1 µM) | mean HPG incorporation (U2OS [3]; 3 µM) | mean HPG incorporation (U2OS [3]; 10 µM) | mean OPP incorporation (U2OS [4]; 1 µM) | mean OPP incorporation (U2OS [4]; 3 µM) | mean OPP incorporation (U2OS [4]; 10 µM) |
| --- | --- | --- | --- | --- | --- | --- | --- | --- | --- | --- | --- | --- |
| C=CC[C@@H]1/C=C(\C)C[C@H](C)C[C@H](OC)[C@H]2O[C@@](O)(C(=O)C(=O)N3CCCC[C@H]3C(=O)O[C@H](/C(C)=C/[C@@H]3CC[C@@H](O)[C@H](OC)C3)[C@H](C)[C@@H](O)CC1=O)[C@H](C)C[C@@H]2OC [FK-506 (Tacrolimus)] | 102 | 98.7 | 99.9 | 98.7 | 100 | 93.3 | 121 | 125 | 133 | 115 | 123 | 134 |
| COc1cc(NC(=O)c2ccccn2)ccc1Cl | 103 | 95 | 96.2 | 105 | 91 | 88.2 | 106 | 113 | 116 | 83.8 | 79.6 | 70.9 |
| COc1ccccc1N1CCN(CCN2C(=O)c3ccccc3C(C)(C)C2=O)CC1 [ARC 239 dihydrochloride] | 106 | 101 | 98.3 | 98.8 | 101 | 100 | 102 | 116 | 122 | 100 | 117 | 120 |
| Cc1c(CN2CCN(C(=O)[C@H](C)O)CC2)sc2c(N3CCOCC3)nc(-c3cnc(N)nc3)nc12 [Apitolisib (GDC-0980, RG7422)] | 80.7 | 76.3 | 75 | 72.8 | 76.9 | 73.3 | 44.1 | 40.7 | 41.4 | 60.3 | 35.8 | 35.4 |
| CCN(CC)CCOc1ccc(C(=C(Cl)c2ccccc2)c2ccccc2)cc1 [Clomiphene citrate (Z,E)] | 91.3 | 95.3 | 86.7 | 88 | 98.6 | 93.3 | 90.2 | 115 | 123 | 116 | 124 | 136 |
| C[C@@H]1CN(CC(=O)Nc2ccc3c(c2)Cc2cccc(-c4cc(=O)cc(N5CCOCC5)o4)c2S3)C[C@H](C)O1 | 98.7 | 89.5 | 81.6 | 96.9 | 88 | 92.3 | 70.2 | 64.9 | 55 | 103 | 108 | 102 |
| Cn1cc(-c2ccc3ncc(Cc4ccc5ncccc5c4)n3n2)cn1 [NVP-BVU972] | 107 | 85.5 | 88.5 | 104 | 79.7 | 89.8 | 114 | 132 | 138 | 91 | 107 | 124 |
| Cc1c(-c2ccc(O)cc2)n(Cc2ccc(OCCN3CCCCCC3)cc2)c2ccc(O)cc12 [Bazedoxifene HCl] | 103 | 98.5 | 80.3 | 96.8 | 86.5 | 77.9 | 84.1 | 84.9 | 85.2 | 109 | 121 | 133 |
| CCn1c(-c2nonc2N)nc2cnc(Oc3cccc(NC(=O)c4ccc(OCCN5CCOCC5)cc4)c3)cc21 | 99 | 96.3 | 76.4 | 102 | 101 | 82.6 | 73.1 | 71.8 | 76.4 | 97.1 | 97.5 | 97.5 |
| O=C(Nc1ccc(OC(F)(F)F)cc1)c1sccc1NCc1ccnc2ccccc12 [OSI-930] | 96.9 | 98.1 | 92 | 98 | 89.7 | 91.2 | 93.9 | 92.7 | 64.2 | 99.3 | 101 | 114 |
| N#CC(c1ccnc(NCCc2cccnc2)n1)c1nc2ccccc2s1 (stereo not drawn) [JNK Inhibitor V] | 105 | 93.9 | 77 | 104 | 94.1 | 79.9 | 122 | 133 | 85.5 | 122 | 127 | 110 |
| COc1cc2c(cc1C(F)(F)F)N(C(=O)Nc1cc(F)cc(-c3cccnc3)c1)CC2 | 95.9 | 95 | 89 | 96.9 | 93.9 | 88.4 | 95.1 | 98.3 | 74.3 | 102 | 112 | 117 |
| CC(C)n1nc(-c2ccc3oc(N)nc3c2)c2c(N)ncnc21 [INK 128 (MLN0128)] | 76 | 80.6 | 72.8 | 79.2 | 68.8 | 69.8 | 32.9 | 29.4 | 28.2 | 28.2 | 29.2 | 30 |
| CC(C)n1nc(-c2cc3cc(O)ccc3[nH]2)c2c(N)ncnc21 [Torkinib (PP242)] | 96.6 | 83 | 76.6 | 96 | 81.7 | 74.7 | 42.9 | 32.7 | 30.9 | 58.4 | 37.4 | 27.3 |
